Key:
Assay in all cases: relative viability (nuclei count vs DMSO), 5 days (fraction); higher = more cells survive
[1] = system: 201T
In short: (§1)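 Relative viability equals treated-well nuclei counts divided by vehicle-well nuclei counts. Counts came from 4× images of lung cancer cell lines grown in 1536-well plates for 5 days after pin-tool dosing on the day after seeding. Dosing used one drug alone or a fixed anchor-drug dose plus five library-drug doses (not always all listed) in √10 steps, and values are medians of duplicate plates.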

[2] = system: A-427
In short: as §1

[3] = system: BEN
In short: as §1

[4] = system: COR-L 105
In short: as §1

[5] = system: COR-L23
In short: as §1

[6] = system: EKVX
In short: as §1

[7] = system: EMC-BAC-2
In short: as §1

[8] = system: HCC-15
In short: as §1

[9] = system: HCC-366
In short: as §1

[10] = system: HCC-78
In short: as §1

[11] = system: HOP-62
In short: as §1

[12] = system: LK-2
In short: as §1

[13] = system: NCI-H1734
In short: as §1

[14] = system: NCI-H1915
In short: as §1

[15] = system: NCI-H1993
In short: as §1

[16] = system: NCI-H2405
In short: as §1

[17] = system: NCI-H460
In short: as §1

[18] = system: NCI-H522
In short: as §1

[19] = system: NCI-H647
In short: as §1

[20] = system: NCI-H661
In short: as §1

[21] = system: PC-14
In short: as §1

[22] = system: SK-MES-1
In short: as §1

CCNC(=O)c1noc(-c2cc(C(C)C)c(O)cc2O)c1-c1ccc(CN2CCOCC2)cc1 [Luminespib] + O=C(c1cc(Cc2n[nH]c(=O)c3ccccc23)ccc1F)N1CCN(C(=O)C2CC2)CC1 [Olaparib] (partner 8 µM)
relative viability ([1]; first compound 0.002 µM): 0.883
relative viability ([1]; first compound 0.006325 µM): 0.829
relative viability ([1]; first compound 0.02 µM): 0.87
relative viability ([1]; first compound 0.06325 µM): 0.803
relative viability ([1]; first compound 0.2 µM): 0.784
relative viability ([2]; first compound 0.002 µM): 0.782
relative viability ([2]; first compound 0.006325 µM): 0.732
relative viability ([2]; first compound 0.02 µM): 0.716
relative viability ([2]; first compound 0.06325 µM): 0.445
relative viability ([2]; first compound 0.2 µM): 0.251
relative viability ([3]; first compound 0.002 µM): 1.24
relative viability ([3]; first compound 0.006325 µM): 0.905
relative viability ([3]; first compound 0.02 µM): 0.823
relative viability ([3]; first compound 0.06325 µM): 0.273
relative viability ([3]; first compound 0.2 µM): 0.279
relative viability ([4]; first compound 0.002 µM): 0.737
relative viability ([4]; first compound 0.006325 µM): 0.647
relative viability ([4]; first compound 0.02 µM): 0.646
relative viability ([4]; first compound 0.06325 µM): 0.256
relative viability ([4]; first compound 0.2 µM): 0.295
relative viability ([5]; first compound 0.002 µM): 0.371
relative viability ([5]; first compound 0.006325 µM): 0.344
relative viability ([5]; first compound 0.02 µM): 0.482
relative viability ([5]; first compound 0.06325 µM): 0.0712
relative viability ([5]; first compound 0.2 µM): 0.0572
relative viability ([6]; first compound 0.002 µM): 0.881
relative viability ([6]; first compound 0.006325 µM): 0.881
relative viability ([6]; first compound 0.02 µM): 0.651
relative viability ([6]; first compound 0.06325 µM): 0.541
relative viability ([6]; first compound 0.2 µM): 0.155
relative viability ([7]; first compound 0.002 µM): 0.489
relative viability ([7]; first compound 0.006325 µM): 0.482
relative viability ([7]; first compound 0.02 µM): 0.471
relative viability ([7]; first compound 0.06325 µM): 0.234
relative viability ([7]; first compound 0.2 µM): 0.242
relative viability ([8]; first compound 0.002 µM): 0.778
relative viability ([8]; first compound 0.006325 µM): 0.682
relative viability ([8]; first compound 0.02 µM): 0.734
relative viability ([8]; first compound 0.06325 µM): 0.345
relative viability ([8]; first compound 0.2 µM): 0.154
relative viability ([9]; first compound 0.002 µM): 0.401
relative viability ([9]; first compound 0.006325 µM): 0.345
relative viability ([9]; first compound 0.02 µM): 0.424
relative viability ([9]; first compound 0.06325 µM): 0.0205
relative viability ([9]; first compound 0.2 µM): 0.0254
relative viability ([10]; first compound 0.002 µM): 0.773
relative viability ([10]; first compound 0.006325 µM): 0.785
relative viability ([10]; first compound 0.02 µM): 0.723
relative viability ([10]; first compound 0.06325 µM): 0.643
relative viability ([10]; first compound 0.2 µM): 0.32
relative viability ([11]; first compound 0.002 µM): 0.533
relative viability ([11]; first compound 0.006325 µM): 0.453
relative viability ([11]; first compound 0.02 µM): 0.723
relative viability ([11]; first compound 0.06325 µM): 0.0994
relative viability ([11]; first compound 0.2 µM): 0.138
relative viability ([12]; first compound 0.002 µM): 0.884
relative viability ([12]; first compound 0.006325 µM): 0.89
relative viability ([12]; first compound 0.02 µM): 0.519
relative viability ([12]; first compound 0.06325 µM): 0.11
relative viability ([12]; first compound 0.2 µM): 0.114
relative viability ([13]; first compound 0.002 µM): 0.646
relative viability ([13]; first compound 0.006325 µM): 0.595
relative viability ([13]; first compound 0.02 µM): 0.476
relative viability ([13]; first compound 0.06325 µM): 0.152
relative viability ([13]; first compound 0.2 µM): 0.13
relative viability ([14]; first compound 0.002 µM): 0.254
relative viability ([14]; first compound 0.006325 µM): 0.269
relative viability ([14]; first compound 0.02 µM): 0.306
relative viability ([14]; first compound 0.06325 µM): 0.148
relative viability ([14]; first compound 0.2 µM): 0.124
relative viability ([15]; first compound 0.002 µM): 1.09
relative viability ([15]; first compound 0.006325 µM): 0.953
relative viability ([15]; first compound 0.02 µM): 0.617
relative viability ([15]; first compound 0.06325 µM): 0.903
relative viability ([15]; first compound 0.2 µM): 0.39
relative viability ([16]; first compound 0.002 µM): 0.948
relative viability ([16]; first compound 0.02 µM): 0.813
relative viability ([16]; first compound 0.06325 µM): 0.181
relative viability ([16]; first compound 0.2 µM): 0.182
relative viability ([17]; first compound 0.002 µM): 0.514
relative viability ([17]; first compound 0.006325 µM): 0.37
relative viability ([17]; first compound 0.02 µM): 0.454
relative viability ([17]; first compound 0.06325 µM): 0.0514
relative viability ([17]; first compound 0.2 µM): 0.0343
relative viability ([18]; first compound 0.002 µM): 0.757
relative viability ([18]; first compound 0.006325 µM): 0.61
relative viability ([18]; first compound 0.02 µM): 0.624
relative viability ([18]; first compound 0.06325 µM): 0.437
relative viability ([18]; first compound 0.2 µM): 0.4
relative viability ([19]; first compound 0.002 µM): 0.536
relative viability ([19]; first compound 0.006325 µM): 0.577
relative viability ([19]; first compound 0.02 µM): 0.273
relative viability ([19]; first compound 0.06325 µM): 0.0706
relative viability ([19]; first compound 0.2 µM): 0.059
relative viability ([20]; first compound 0.002 µM): 0.754
relative viability ([20]; first compound 0.006325 µM): 0.804
relative viability ([20]; first compound 0.02 µM): 0.807
relative viability ([20]; first compound 0.06325 µM): 0.414
relative viability ([20]; first compound 0.2 µM): 0.3
relative viability ([21]; first compound 0.002 µM): 0.288
relative viability ([21]; first compound 0.006325 µM): 0.261
relative viability ([21]; first compound 0.02 µM): 0.101
relative viability ([21]; first compound 0.06325 µM): 0.0578
relative viability ([21]; first compound 0.2 µM): 0.0514
relative viability ([22]; first compound 0.002 µM): 0.713
relative viability ([22]; first compound 0.006325 µM): 0.629
relative viability ([22]; first compound 0.02 µM): 0.326
relative viability ([22]; first compound 0.06325 µM): 0.17
relative viability ([22]; first compound 0.2 µM): 0.157

— the supplement of paper PMC10307832
